From patent US10420718B2, “Effervescent compositions containing co-crystals of the acid part” (University of Bradford, priority 2014, dated 2019)

What was measured:
[1] = Dynamic vapour sorption (DVS) study; type: physicochemical; conditions: for Moisture sorption (weight gain) at 90% relative humidity: DVS, 90% RH
Procedure: UK. The sample weights were taken in the range of 30-50 mg and below experimental parameters were kept constant for all samples.

[2] = Stability of co-crystals stored at 98% relative humidity, checked by XRD; type: physicochemical; conditions: 98% RH
Procedure: The co-crystals were stored at 98% relative humidity and the stability was evaluated after 24 hours using powder X-ray diffraction. […] This stability of the co-crystal in the presence of high amounts of atmospheric moisture is responsible for maintenance of the effervescent action. The stability of the co-crystals to moisture was investigated by storing the co-crystals at 98% relative humidity and the following results were observed. The co-crystal samples were analysed with XRD to check whether the co-crystal retained its structure or became dissociated or degraded over time on exposure to the atmosphere. Stability of Co-Crystals at 98% RH

SMILES | Moisture sorption (weight gain) at 90% relative humidity ([1]; 25 C) [%] | Change In Mass (%) ([1]; Target Relative Humidity 0.0%) | Change In Mass (%) ([1]; Target Relative Humidity 10.0%) | Change In Mass (%) ([1]; Target Relative Humidity 20.0%) | Change In Mass (%) ([1]; Target Relative Humidity 30.0%) | Change In Mass (%) ([1]; Target Relative Humidity 40.0%) | Change In Mass (%) ([1]; Target Relative Humidity 50.0%) | Change In Mass (%) ([1]; Target Relative Humidity 60.0%) | Change In Mass (%) ([1]; Target Relative Humidity 70.0%) | Change In Mass (%) ([1]; Target Relative Humidity 80.0%) | Change In Mass (%) ([1]; Target Relative Humidity 90.0%) | Behaviour in DVS study (in words) ([1]; DVS 0-90% RH, 25 C) | Weight gain due to moisture sorption (total) ([1]; DVS 0-90% RH, 25 C) [%] | XRD results (co-crystal stability) ([2]; Day 14) | XRD results (co-crystal stability) ([2]; Day 18)
O=C([O-])O.[Na+] [sodium bicarbonate] | 0.32 | −0.0001 | 0.0027 | 0.0042 | 0.0056 | 0.0074 | 0.0103 | 0.0143 | 0.0240 | 0.0746 | 0.3236 |  |  |  | 
O=C(O)CC(O)(CC(=O)O)C(=O)O [citric acid] |  | 0.00 | 0.00 | 0.00 | 0.00 | 0.00 | 0.00 | 0.01 | 0.02 | 4.65 | 31.21 | undergoes liquefaction | 31 |  | 
NC(=O)c1cccnc1.NC(=O)c1cccnc1.O=C(O)CC(O)(CC(=O)O)C(=O)O [Citric acid:nicotinamide, 1:2 co-crystal] |  | 0.0002 | 0.0044 | 0.0070 | 0.0108 | 0.0145 | 0.0203 | 0.0318 | 0.0561 | 0.0976 | 0.2319 |  |  |  | 
NC(=O)c1cccnc1.NC(=O)c1cccnc1.O=C(O)CC(O)(CC(=O)O)C(=O)O [Citric acid-nicotinamide, 1:2, citric acid-nicotinamide 1:2 co-crystal] | 0.23 |  |  |  |  |  |  |  |  |  |  | non-hygroscopic |  | Stable | Stable
